Source: patent US20060100431A1, “Biologically active compounds” (Amura Therapeutics Limited, priority 2002, published 2006)

Key:
Type in all cases: biochemical
Wild-type cruzipain = Wild-type cruzipain (Trypanosoma cruzi, UniProt P25779); assay: Trypanosoma cruzi cruzipain peptidase activity assay (Ki); details: read-out: Ki, inhibitors of cruzain and cruzipains
In short: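 Native cruzipain from T. cruzi Dm28 epimastigotes, 2.5 nM, in 100 mM sodium phosphate pH 6.75 with 1 mM EDTA and 10 mM L-cysteine, 25 °C, DMSO <1%. Rates taken from continuous fluorogenic substrate read; Ki by regression assuming reversible pure-competitive inhibition.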

human cathepsin B = target: T1, human cathepsin B (Homo sapiens, UniProt P07858); assay: Cathepsin B peptidase activity assay (Ki); details: read-out: Ki, inhibitors of cathepsin B
T1 construct: purchased CN Biosciences
In short: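 Buffer: 10 mM bis-tris-propane pH 6.5, 1 mM EDTA, 5 mM 2-mercaptoethanol, 1 mM CaCl2; DMSO <1%. Ki assumed reversible, pure-competitive, from Ki^app=Ki(1+[So]/KM^app) by non-linear regression.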

human cathepsin L = target: T2, human cathepsin L (Homo sapiens, UniProt P07711); assay: Cathepsin L peptidase activity assay (Ki); details: read-out: Ki, inhibitors of cathepsin L
T2 construct: purchased CN Biosciences
In short: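 Human cathepsin L at 1 nM with Ac-Phe-Arg-AMC at its KM^app (~20 μM) in 10 mM bis-tris-propane pH 6.5, 1 mM EDTA, 5 mM 2-mercaptoethanol, 1 mM CaCl2, DMSO <1%, 25±1° C. Reaction enzyme-initiated; AMC fluorescence (ex 365/em 450 nm) monitored over time.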

CPB2.8ΔCTE = target: T3, CPB2.8ΔCTE (Leishmania mexicana, UniProt P36400); assay: Leishmania mexicana cysteine protease B (CPB) peptidase activity assay (Ki); details: Ki, inhibitors of Leismania mexicana CPB protease
T3 construct: Wild-type recombinant CPB without the C-terminal extention (i.e. CPB2.8ΔCTE); Dr. Jeremy Mottram (Wellcome Centre for Molecular Parasitology, University of Glasgow)
In short: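 Recombinant CPB2.8ΔCTE (0.25 nM) was assayed in 100 mM sodium acetate pH 5.5 with 1 mM EDTA, 200 mM NaCl and 10 mM DTT at 25 °C, DMSO <1%, enzyme added to start. Rates were taken from continuous fluorescence slopes; apparent Ki was fitted assuming reversible, pure-competitive inhibition.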

Measured: Ki

T3 sequence (P36400 126-343, stated change not applied): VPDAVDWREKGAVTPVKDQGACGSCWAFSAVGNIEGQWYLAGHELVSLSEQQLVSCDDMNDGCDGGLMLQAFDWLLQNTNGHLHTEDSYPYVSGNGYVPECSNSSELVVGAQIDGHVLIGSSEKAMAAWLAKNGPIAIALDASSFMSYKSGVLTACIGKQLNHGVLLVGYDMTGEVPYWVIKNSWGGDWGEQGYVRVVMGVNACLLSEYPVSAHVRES
T2 sequence (P07711 114-333): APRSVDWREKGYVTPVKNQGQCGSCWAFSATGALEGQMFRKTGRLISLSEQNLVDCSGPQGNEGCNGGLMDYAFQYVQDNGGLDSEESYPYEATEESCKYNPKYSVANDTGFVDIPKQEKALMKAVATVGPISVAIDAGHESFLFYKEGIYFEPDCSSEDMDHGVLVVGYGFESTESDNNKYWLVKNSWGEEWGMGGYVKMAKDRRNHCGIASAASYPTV
Sequence of Wild-type cruzipain (P25779 whole entry): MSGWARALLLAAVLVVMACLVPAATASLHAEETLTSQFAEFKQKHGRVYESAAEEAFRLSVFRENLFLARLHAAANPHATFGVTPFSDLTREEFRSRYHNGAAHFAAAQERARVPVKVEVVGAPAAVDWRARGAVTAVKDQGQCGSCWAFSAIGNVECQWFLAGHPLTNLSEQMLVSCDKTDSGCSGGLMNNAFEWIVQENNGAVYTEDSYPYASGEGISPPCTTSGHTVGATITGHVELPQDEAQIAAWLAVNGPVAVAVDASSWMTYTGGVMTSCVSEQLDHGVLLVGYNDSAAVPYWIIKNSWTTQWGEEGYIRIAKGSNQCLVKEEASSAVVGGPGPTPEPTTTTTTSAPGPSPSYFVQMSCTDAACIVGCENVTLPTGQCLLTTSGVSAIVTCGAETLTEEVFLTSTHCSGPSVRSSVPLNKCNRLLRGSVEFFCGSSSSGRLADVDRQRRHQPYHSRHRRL

CC(C)C[C@H](NC(=O)c1cc2ccccc2s1)C(=O)N1CC[C@@H]2[C@H]1C(=O)CN2C(=O)c1cccnc1 [Example 15, (3aR,6aS)-Benzo[b]thiophene-2-carboxylic acid {(1S)-3-methyl-1-[6-oxo-4-(pyridine-3-carbonyl)-hexahydro-pyrrolo[3,2-b]pyrrole-1-carbonyl]-butyl}-amide]
< 5 µM: Wild-type cruzipain | human cathepsin B | human cathepsin L

CC(C)C[C@H](NC(=O)c1ccc(C(C)(C)C)cc1)C(=O)N1CC[C@@H]2[C@H]1C(=O)CN2C(=O)c1ccc(-c2ccccc2)s1 [Example 28, (3aR,6aS)-4-tert-Butyl-N-{(1S)-3-methyl-1-[6-oxo-4-(5-phenyl-thiophene-2-carbonyl)-hexahydro-pyrrolo[3,2-b]pyrrole-1-carbonyl]-butyl}-benzamide]
< 5 µM: all assays above

CC(C)C[C@H](NC(=O)c1ccc(C(C)(C)C)cc1)C(=O)N1CC[C@@H]2[C@H]1C(=O)CN2C(=O)c1csc2ccccc12 [Example 31]
< 5 µM: all assays above

CC(C)C[C@H](NC(=O)c1ccc(N(C)C)cc1)C(=O)N1CC[C@@H]2[C@H]1C(=O)CN2C(=O)c1cccc(Cl)c1 [Example 73, (3aR,6aS)-N-{(1S)-1-[4-(3-Chloro-benzoyl)-6-oxo-hexahydro-pyrrolo[3,2-b]pyrrole-1-carbonyl]-3-methyl-butyl}-4-dimethylamino-benzamide]
< 5 µM: all assays above

CC(C)C[C@H](NC(=O)c1ccc(N(C)C)cc1)C(=O)N1CC[C@@H]2[C@H]1C(=O)CN2C(=O)C1CCCCC1 [Example 104, (3aR,6aS)-N-[(1S)-1-(4-Cyclohexanecarbonyl-6-oxo-hexahydro-pyrrolo[3,2-b]pyrrole-1-carbonyl)-3-methyl-butyl]-4-dimethylamino-benzamide]
< 5 µM: all assays above

O=C(N[C@@H](CC1CCCCC1)C(=O)N1CC[C@@H]2[C@H]1C(=O)CN2C(=O)c1ccccc1)c1csc2ccccc12 [Example 254, (3aR,6aS)-Benzo[b]thiophene-3-carboxylic acid [(1S)-2-(4-benzoyl-6-oxo-hexahydro-pyrrolo[3,2-b]pyrrole-1-yl)-1-cyclohexylmethyl-2-oxo-ethyl]-amide]
< 5 µM: Wild-type cruzipain | human cathepsin B | human cathepsin L

O=C(N[C@@H](CC1CCCCC1)C(=O)N1CC[C@@H]2[C@H]1C(=O)CN2C(=O)c1cccc2ccccc12)c1ccsc1 [Example 255, (3aR,6aS)-Thiophene-3-carboxylic acid {(1S)-1-cyclohexylmethyl-2-[4-(naphthalene-1-carbonyl)-6-oxo-hexahydro-pyrrolo[3,2-b]pyrrol-1-yl]-2-oxo-ethyl}-amide]
< 5 µM: Wild-type cruzipain | human cathepsin B | human cathepsin L

CS(=O)(=O)c1ccccc1C(=O)N1CC(=O)[C@@H]2[C@H]1CCN2C(=O)[C@H](CSCc1ccccc1)NC(=O)c1ccsc1 [Example 261, (3aR,6aS)-Thiophene-3-carboxylic acid {(1R)-1-benzylsulfanylmethyl-2-[4-(2-methanesulfonyl-benzoyl)-6-oxo-hexahydro-pyrrolo[3,2-b]pyrrol-1-yl]-2-oxo-ethyl}-amide]
< 5 µM: Wild-type cruzipain | human cathepsin B | human cathepsin L

CC(C)C[C@H](NC(=O)C(c1ccccc1)c1ccccc1)C(=O)N1CC[C@@H]2[C@H]1C(=O)CN2C(=O)c1csc2ccccc12 [Example 271, (3aR,6aS)-N-{(1S)-1-[4-(Benzo[b]thiophene-3-carbonyl)-6-oxo-hexahydro-pyrrolo[3,2-b]pyrrole-1-carbonyl]-3-methyl-butyl}-2,2-diphenyl-acetamide]
< 5 µM: all assays above

O=C(N[C@@H](CSCc1ccccc1)C(=O)N1CC[C@@H]2[C@H]1C(=O)CN2C(=O)C1CCCCC1)c1ccsc1 [Example 273, (3aR,6aS)-Thiophene-3-carboxylic acid [(1R)-1-benzylsulfanylmethyl-2-(4-cyclohexanecarbonyl-6-oxo-hexahydro-pyrrolo[3,2-b]pyrrol-1-yl)-2-oxo-ethyl]-amide]
< 5 µM: human cathepsin B | human cathepsin L

Cc1cccc(C(=O)N2CC(=O)[C@@H]3[C@H]2CCN3C(=O)[C@H](CSCc2ccccc2)NC(=O)c2ccsc2)c1 [Example 275, (3aR,6aS)-Thiophene-3-carboxylic acid {(1R)-1-benzylsulfanylmethyl-2-[4-(3-methyl-benzoyl)-6-oxo-hexahydro-pyrrolo[3,2-b]pyrrol-1-yl]-2-oxo-ethyl}-amide]
< 5 µM: human cathepsin B | human cathepsin L

O=C(N[C@@H](CSCc1ccccc1)C(=O)N1CC[C@@H]2[C@H]1C(=O)CN2C(=O)c1ccccc1)c1ccc2ncsc2c1 [Example 281, (3aR,6aS)-Benzothiazole-6-carboxylic acid [(1R)-2-(4-benzoyl-6-oxo-hexahydro-pyrrolo[3,2-b]pyrrole-1-yl)-1-benzylsulfanylmethyl-2-oxo-ethyl]-amide]
< 5 µM: human cathepsin B | human cathepsin L

O=C(N[C@@H](CC1CCCCC1)C(=O)N1CC[C@@H]2[C@H]1C(=O)CN2C(=O)c1ccccc1)c1ccc2ncsc2c1 [Example 286, (3aR,6aS)-Benzothiazole-6-carboxylic acid [(1S)-2-(4-benzoyl-6-oxo-hexahydro-pyrrolo[3,2-b]pyrrole-1-yl)-1-cyclohexylmethyl-2-oxo-ethyl]-amide]
< 5 µM: all assays above

O=C(N[C@@H](CC1CCCCC1)C(=O)N1CC[C@@H]2[C@H]1C(=O)CN2C(=O)c1ccccc1)c1ccccc1 [Example 290, (3aR,6aS)-N-[(1S)-2-(4-Benzoyl-6-oxo-hexahydro-pyrrolo[3,2-b]pyrrol-1-yl)-1-cyclohexylmethyl-2-oxo-ethyl]-benzamide]
< 5 µM: Wild-type cruzipain | human cathepsin B | human cathepsin L

Cc1cccc(C(=O)N2CC(=O)[C@@H]3[C@H]2CCN3C(=O)[C@H](CC2CCCCC2)NC(=O)c2ccsc2)c1 [Example 292, (3aR,6aS)-Thiophene-3-carboxylic acid {(1S)-1-cyclohexylmethyl-2-[4-(3-methyl-benzoyl)-6-oxo-hexahydro-pyrrolo[3,2-b]pyrrol-1-yl]-2-oxo-ethyl}-amide]
< 5 µM: Wild-type cruzipain | human cathepsin B | human cathepsin L
